In PubChem BioAssay (NCI):
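Values below derive from 48-hour exposures of cells grown in 96-well plates, with endpoints linearly interpolated between the two concentrations bracketing the appropriate inhibition level. TGI: concentration producing complete growth inhibition.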

Assays:
Assay in all cases: NCI tumour cell line growth inhibition, 48 h
BT-549 breast = system: BT-549 breast
COLO 205 colon = system: COLO 205 colon
DU-145 prostate = system: DU-145 prostate
EKVX NSCLC = system: EKVX NSCLC
HCT-15 colon = system: HCT-15 colon
HL-60(TB) leukemia = system: HL-60(TB) leukemia
HOP-62 NSCLC = system: HOP-62 NSCLC
MALME-3M melanoma = system: MALME-3M melanoma
MDA-MB-231 breast = system: MDA-MB-231 breast
MOLT-4 leukemia = system: MOLT-4 leukemia
NCI-H23 lung = system: NCI-H23 lung
NCI-H522 lung = system: NCI-H522 lung
OVCAR-4 ovarian = system: OVCAR-4 ovarian
OVCAR-8 ovarian = system: OVCAR-8 ovarian
PC-3 prostate = system: PC-3 prostate
SF-295 CNS = system: SF-295 CNS
SN12C renal = system: SN12C renal
UACC-257 melanoma = system: UACC-257 melanoma
UO-31 renal = system: UO-31 renal

Compound	TGI (BT-549 breast)	TGI (COLO 205 colon)	TGI (DU-145 prostate)	TGI (EKVX NSCLC)	TGI (HCT-15 colon)	TGI (HL-60(TB) leukemia)	TGI (HOP-62 NSCLC)	TGI (MALME-3M melanoma)	TGI (MDA-MB-231 breast)	TGI (MOLT-4 leukemia)	TGI (NCI-H23 lung)	TGI (NCI-H522 lung)	TGI (OVCAR-4 ovarian)	TGI (OVCAR-8 ovarian)	TGI (PC-3 prostate)	TGI (SF-295 CNS)	TGI (SN12C renal)	TGI (UACC-257 melanoma)	TGI (UO-31 renal)
N#CC12C(=O)N3C(=NC(c4ccccc4)NC3c3ccccc3)C1(C#N)C(c1ccccc1)NC1=C2CCC1 (centres undefined)	> 100 µM	> 100 µM	> 100 µM	> 100 µM	> 100 µM	> 100 µM	> 100 µM	> 100 µM	> 100 µM	> 100 µM	> 100 µM	> 100 µM	> 100 µM	> 100 µM	> 100 µM	> 100 µM	> 100 µM	> 100 µM	> 100 µM
O=C(C1OC1c1ccc(O)cc1)C12CC3CC(CC(C3)C1)C2 (centres undefined)	> 81.8 µM	> 76.9 µM	> 100 µM	> 78.2 µM	> 100 µM	> 43.4 µM	> 100 µM	98.9 µM	> 100 µM	> 55.2 µM	> 100 µM	24.7 µM	> 100 µM	> 100 µM	> 100 µM	> 100 µM	> 69.7 µM	> 100 µM	> 86.1 µM
O=C(/C=C/c1ccccc1)CCN1CCN(CCC(=O)/C=C/c2ccccc2)CC1	28.4 µM	31.1 µM	31.5 µM	35.2 µM	23 µM	> 100 µM	43.9 µM	30.9 µM	17 µM	85.5 µM	31.2 µM	30 µM	39.3 µM	31.4 µM	34 µM	31.2 µM	21.7 µM	24 µM	30.8 µM
CCCC1(NC(=O)C(F)(F)F)CC(OC)OC2COC(c3ccccc3)OC21 (centres undefined)	> 100 µM	48.6 µM	> 100 µM	> 100 µM	> 100 µM	95.3 µM	> 100 µM	> 100 µM	> 100 µM	> 100 µM	> 100 µM	> 100 µM	> 100 µM	> 100 µM	> 100 µM	> 100 µM	> 100 µM	> 100 µM	> 100 µM
COC(=O)c1ccccc1CC1Cc2ccc3c(c2C1=O)CCC3 (centres undefined)	> 100 µM	> 100 µM	> 100 µM	> 100 µM	> 100 µM	84.8 µM	> 100 µM	> 100 µM	> 100 µM	> 100 µM	> 100 µM	88 µM	> 100 µM	> 100 µM	> 100 µM	> 100 µM	> 100 µM	> 100 µM	> 100 µM
CC(=O)N1C(c2[nH]c3ccccc3c2-c2ccccc2)CCN1c1ccccc1 (centres undefined)	> 10 µM	> 10 µM	> 10 µM	> 10 µM	> 10 µM	> 10 µM	> 10 µM	> 10 µM	> 10 µM	> 10 µM	> 10 µM	> 10 µM	> 10 µM	> 10 µM	> 10 µM	> 10 µM	> 10 µM	> 10 µM	> 10 µM
